Test results taken from patent EP3156398A1, “AGONISTS OF THE CHEMOKINE RECEPTOR CXCR3” (Friedrich-Alexander-Universität Erlangen-Nürnberg, priority 2015, dated 2017).

How the values were obtained:
[1] = tested on: activated T-cells; settings: cited from earlier work
[2] = target: T1, CXCR3-PK1 (Homo sapiens, UniProt P49682); test: β-arrestin 2 recruitment assay (PathHunter, DiscoveRx), CXCR3-PK1 construct; format: cell-based; settings: CXCR3-PK1
T1 construct: expressed in transfected cells; host or cells: HEK293 cells stably expressing beta-gal enzyme acceptor (PathHunter, DiscoveRx), transiently transfected
T1 sequence (P49682 1-368): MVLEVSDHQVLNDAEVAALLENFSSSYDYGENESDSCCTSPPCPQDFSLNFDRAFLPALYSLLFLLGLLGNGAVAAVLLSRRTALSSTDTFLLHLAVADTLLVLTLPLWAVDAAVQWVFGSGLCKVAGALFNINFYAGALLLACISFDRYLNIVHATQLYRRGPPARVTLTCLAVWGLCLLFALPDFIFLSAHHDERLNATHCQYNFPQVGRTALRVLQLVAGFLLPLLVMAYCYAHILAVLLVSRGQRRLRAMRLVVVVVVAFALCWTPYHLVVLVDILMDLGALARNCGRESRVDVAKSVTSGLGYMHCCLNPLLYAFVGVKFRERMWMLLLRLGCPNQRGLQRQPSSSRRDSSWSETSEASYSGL
How it was run: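 HEK293 cells stably expressing β-gal enzyme acceptor, transiently transfected with PK1-tagged wild-type CXCR3, seeded overnight at 37°C. Test compounds or CXCL11 at various concentrations in PBS pH 7.4 with 0.20% BSA, 4 h; detection mix 60 min at room temperature. β-gal fragment complementation read by chemiluminescence.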

[3] = target: T2, CXCR3-PK2 (Homo sapiens, UniProt P49682); test: β-arrestin 2 recruitment assay (PathHunter, DiscoveRx), CXCR3-PK2 construct; format: cell-based; settings: CXCR3-PK2
T2 construct: expressed in transfected cells
T2 sequence (P49682 1-368): T1 sequence (P49682 1-368)
Description: β-arrestin 2 recruitment assay: The measurement of β-arrestin recruitment was performed utilizing the PathHunter assay purchased from DiscoveRx (DiscoveRx, Birmingham, U.K.) according to the manufacturer's protocol. HEK293 cells stably expressing β-gal enzyme acceptor were transiently transfected with the ProLink (PK1) tagged wildtype CXCR3 receptor using the TransIT-293 transfection reagent from Mirus (purchased from MoBiTec, Goettingen, Germany). The assay was carried out in 384-well plates containing 2000 cells in 20 µL. After incubation at 37°C (5% CO2, 95% relative humidity) overnight, various concentrations of test compounds or CXCL11 (prepared in PBS, pH 7.4, containing 0.20% BSA) were added and the incubation continued for 4 h. Detection mix was then added and incubated for further 60 min at room temperature. Chemiluminescence was determined with a microplate reader Clariostar (BMG labtech, Ortenberg, Germany).
The ability of the novel ligands according to the present invention to induce CXCR3-mediated β-arrestin 2 recruitment was investigated in the assay system PathHunter (DiscoveRx), which detects the recruitment of β-amestin 2 to the activated receptor using β-galactosidase (β-gal) enzyme fragment complementation. The inventors used two different ProLink tags, ProLink1 (PK1) and ProLink2 (PK2), of which PK2 has higher affinity for the enzyme acceptor to detect weak protein-protein interactions. The CXCR3-PK2 construct is readily able to detect the differences in the propensity of CXCL11 and CXCL10 to induce β-arrestin 2 recruitment at CXCR3. […] Table 3. Ability of the 46/VUF10661 based positive allosteric modulators to activate the CXCR3 as measured in the β-arrestin 2 recruitment assay (PathHunter, DiscoveRx).[a]
To investigate the efficacy of identified partial agonists in the assay format, the inventors used the CXCR3-PK2 construct, which is characterized by higher sensitivity to detect β-arrestin 2 recruitment. The compounds which appeared as weak partial agonists under CXCR3-PK1 conditions appeared as strong partial agonists under CXCR3-PK2 conditions with the efficacy increased up to 80% (Table 4). FAUC1036 reached the efficacy of 66%. […] Table 4. Ability of the compound 5 based positive allosteric modulators to activate the CXCR3 as measured in the β-arrestin 2 recruitment assay (PathHunter, DiscoveRx).[a]

[4] = target: T3, CXCR3 (Homo sapiens, UniProt P49682); test: [35S]GTPγS incorporation assay; format: biochemical; settings: membrane preparations of HEK293T stably expressing CXCR3
T3 construct: expressed in transfected cells; host or cells: HEK293 / HEK293T cells, stably transfected; membrane preparations
T3 sequence (P49682 1-368): T1 sequence (P49682 1-368)
How it was run: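 Membranes from HEK293 cells stably expressing human CXCR3 (30 µg/mL protein) preincubated 30 min at 37 °C with test compound, CXCL11 and 1 µM GDP in HEPES/MgCl2/NaCl/saponin buffer, pH 7.4. Then 0.10 nM [35S]GTPγS added for 30 min at 37 °C; filter-bound radioactivity counted, triplicates, 3–4 experiments.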

Question: For `NC(N)=NCCC[C@H](NC(=O)[C@@H]1Cc2ccccc2CN1C(=O)CCC(=O)c1ccccc1)C(=O)NCC1CCCCC1` [PS372424], which “influence on CXCL11 induced migration in activated T-cells” value [1] is on record?
Answer: The value was “found to antagonize CXCL11 induced migration”.

Question: What does the source list for `NCCCC[C@@H](NC(=O)[C@@H]1Cc2ccccc2CN1C(=O)CCC(=O)c1ccccc1)C(=O)NCC(c1ccccc1)c1ccccc1.O=C(O)C(F)(F)F` [Compound 47, (R)-6-((2,2-diphenylethyl)amino)-6-oxo-5-((S)-2-(4-oxo-4-phenylbutanoyl)-1,2,3,4-tetrahydroisoquinoline-3-carboxamido)hexan-1-aminium 2,2,2-trifluoroacetate]?
Answer: Emax ([2]; % of CXCL11 mediated effect, read-out: CXCR3-PK1 efficacy (%) (converted)): 108%; CXCR3-PK1 pEC50 ± SEM ([2]; HEK293-T cells, PathHunter, two to three experiments in triplicate): 5.96±0.08; Emax ([3]; % of CXCL11 mediated effect, read-out: CXCR3-PK2 efficacy (%) (converted)): 198%; CXCR3-PK2 pEC50 ± SEM ([3]; HEK293-T cells, PathHunter): 6.12±0.11; Emax ([4]; % of CXCL11 mediated effect, read-out: CXCR3 Efficacy (%) ± SEM): 85 ± 5%; CXCR3 pEC50 ± SEM ([4]; mean of three experiments in triplicate): 5.94±0.09
